Reference: patent US11116760B2 (Gilead Sciences, Inc., priority 2018, dated 2021)

Molecular target: α4β7 integrin (Homo sapiens (Human), UniProt P13612+P26010)
Assay: α4β7 Integrin Cell Capture Assay
Assay type: cell-based
Details: RPMI8866 cells captured on MadCAM-1 extracellular domain-coated plate

Chain of α4β7 integrin (P13612 34-1032): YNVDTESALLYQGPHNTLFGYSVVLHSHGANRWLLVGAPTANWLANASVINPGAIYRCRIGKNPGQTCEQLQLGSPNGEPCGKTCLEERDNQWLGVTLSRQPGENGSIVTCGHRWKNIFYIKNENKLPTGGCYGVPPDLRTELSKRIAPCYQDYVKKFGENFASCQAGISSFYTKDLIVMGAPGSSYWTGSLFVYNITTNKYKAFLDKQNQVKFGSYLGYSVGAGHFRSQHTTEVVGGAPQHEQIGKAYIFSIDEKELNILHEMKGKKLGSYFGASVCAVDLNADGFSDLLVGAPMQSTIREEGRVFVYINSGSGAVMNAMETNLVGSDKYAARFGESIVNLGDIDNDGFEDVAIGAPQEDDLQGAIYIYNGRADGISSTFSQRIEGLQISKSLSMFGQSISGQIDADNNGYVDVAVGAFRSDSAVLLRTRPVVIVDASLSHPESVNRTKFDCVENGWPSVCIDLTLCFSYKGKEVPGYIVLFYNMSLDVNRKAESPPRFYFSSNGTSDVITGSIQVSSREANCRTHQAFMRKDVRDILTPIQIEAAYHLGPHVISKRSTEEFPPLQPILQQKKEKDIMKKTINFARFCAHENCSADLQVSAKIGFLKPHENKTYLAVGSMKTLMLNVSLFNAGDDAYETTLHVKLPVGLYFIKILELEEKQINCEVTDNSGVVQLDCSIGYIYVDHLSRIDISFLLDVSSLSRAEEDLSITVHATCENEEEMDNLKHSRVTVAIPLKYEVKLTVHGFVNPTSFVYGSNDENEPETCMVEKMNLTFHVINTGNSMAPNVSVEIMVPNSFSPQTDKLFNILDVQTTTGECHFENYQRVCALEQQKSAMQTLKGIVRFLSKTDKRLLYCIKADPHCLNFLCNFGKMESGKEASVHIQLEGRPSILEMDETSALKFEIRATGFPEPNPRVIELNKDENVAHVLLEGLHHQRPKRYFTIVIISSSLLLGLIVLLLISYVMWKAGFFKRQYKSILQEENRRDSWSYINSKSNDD
Chain of α4β7 integrin (P26010 20-798): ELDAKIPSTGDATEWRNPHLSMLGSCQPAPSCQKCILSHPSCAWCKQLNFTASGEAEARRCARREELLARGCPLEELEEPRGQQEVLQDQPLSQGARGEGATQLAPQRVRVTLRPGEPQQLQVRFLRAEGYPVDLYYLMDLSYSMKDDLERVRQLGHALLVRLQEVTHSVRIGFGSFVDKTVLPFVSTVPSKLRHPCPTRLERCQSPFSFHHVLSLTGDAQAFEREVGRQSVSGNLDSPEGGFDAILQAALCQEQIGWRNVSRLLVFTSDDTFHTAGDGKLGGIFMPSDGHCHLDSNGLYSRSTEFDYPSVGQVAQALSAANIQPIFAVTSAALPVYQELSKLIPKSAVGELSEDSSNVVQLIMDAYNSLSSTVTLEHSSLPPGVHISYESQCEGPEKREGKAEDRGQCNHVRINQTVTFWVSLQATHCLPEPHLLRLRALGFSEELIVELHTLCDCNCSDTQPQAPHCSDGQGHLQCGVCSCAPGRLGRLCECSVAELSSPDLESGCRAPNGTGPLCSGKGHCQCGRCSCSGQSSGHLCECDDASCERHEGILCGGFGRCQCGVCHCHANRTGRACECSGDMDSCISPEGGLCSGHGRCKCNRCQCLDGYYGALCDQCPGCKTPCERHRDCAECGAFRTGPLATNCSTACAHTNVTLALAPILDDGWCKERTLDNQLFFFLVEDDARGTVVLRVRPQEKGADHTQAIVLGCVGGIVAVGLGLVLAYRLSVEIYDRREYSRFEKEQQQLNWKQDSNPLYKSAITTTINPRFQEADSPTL

SMILES	EC50 [nM]
Cc1cc(C(F)(F)F)c(-c2ccc(C[C@H](NC(=O)c3c(F)cc(N4CCc5ccccc5[C@@H]4C(F)(F)F)cc3F)C(=O)O)c3cccnc23)c(=O)n1C [Example 472]	0.331
Cc1cc(-c2nccn2CC(F)(F)F)cc(F)c1C(=O)N[C@@H](Cc1ccc(-c2c(C(F)(F)F)cc(C)n(C)c2=O)c2ncccc12)C(=O)O [Example 435]	0.524
Cc1cc(N2CCOC[C@@H]2C(F)(F)F)cc(F)c1C(=O)N[C@@H](Cc1ccc(-n2c(=O)c3ccncc3n(C)c2=O)c2ncccc12)C(=O)O (single isomer, unassigned) [Example 407]	0.162
Cn1c(=O)n(-c2ccc(C[C@H](NC(=O)c3c(F)cc(N4CCOC[C@@H]4C(F)(F)F)cc3Cl)C(=O)O)c3cccnc23)c(=O)c2ccncc21 [Example 414]	0.048
Cc1cnc(-c2c(F)cc(C[C@H](NC(=O)c3c(C)cc(N4CCOC[C@@H]4C(F)(F)F)cc3F)C(=O)O)c3cccnc23)nc1C [Example 465]	1.53
Cc1cc(N2CCOC[C@@H]2C(F)(F)F)cc(F)c1C(=O)N[C@@H](Cc1ccc(-n2c(=O)c3cc(F)ncc3n(C)c2=O)c2ncccc12)C(=O)O [Example 420]	0.116
Cc1cc(N2CCOC[C@@H]2C(F)(F)F)cc(C)c1C(=O)N[C@@H](Cc1ccc(-c2c(C(F)(F)F)cc(C)n(C)c2=O)c2ncccc12)C(=O)O [Example 446]	0.318

Same assay, conditions: Table 1; capture of α4β7 expressing RPM18866 cells on MadCAM-1 extracellular domain-coated plate

SMILES	EC50 [nM]
N#Cc1ccc(-c2ccc(C[C@H](NC(=O)c3c(F)cc(N4CCC4C(F)(F)F)cc3F)C(=O)O)c3cccnc23)c(Cl)c1 (stereo partly drawn) [Example 78, (2S)-3-(8-(2-chloro-4-cyanophenyl)quinolin-5-yl)-2-(2,6-difluoro-4-(2-(trifluoromethyl)azetidin-1-yl)benzamido)propanoic acid]	134
CCOCc1cc(OC)c(-c2ccc(C[C@H](NC(=O)c3c(F)cc(C#N)cc3F)C(=O)O)c3cccnc23)c(OC)c1 [Example 42, (S)-2-(4-cyano-2,6-difluorobenzamido)-3-(8-(4-(ethoxymethyl)-2,6-dimethoxyphenyl)quinolin-5-yl)propanoic acid]	13.4
O=C(N[C@@H](Cc1ccc(-c2c(Cl)cc(F)cc2Cl)c2ncc(F)cc12)C(=O)O)c1c(F)cccc1F [Example 32, (S)-3-(8-(2,6-dichloro-4-fluorophenyl)-3-fluoroquinolin-5-yl)-2-(2,6-difluorobenzamido)propanoic acid]	75.9
Cn1c(=O)c(-c2ccc(C[C@H](NC(=O)c3c(F)cccc3F)C(=O)O)c3cccnc23)cc2ccccc21 [Example 14, (S)-2-(2,6-difluorobenzamido)-3-(1-methyl-2-oxo-1,2-dihydro-[3,8′-biquinolin]-5′-yl)propanoic acid]	3.7
CC[C@@H](Nc1cc(F)c(C(=O)N[C@@H](Cc2ccc(-c3nccc(OC)c3C(F)(F)F)c3ncccc23)C(=O)O)c(F)c1)C(F)(F)F [Example 92, (S)-2-(2,6-difluoro-4-(((R)-1,1,1-trifluorobutan-2-yl)amino)benzamido)-3-(8-(4-methoxy-3-(trifluoromethyl)pyridin-2-yl)quinolin-5-yl)propanoic acid]	2
N#Cc1ccc(-c2ccc(C[C@H](NC(=O)c3c(F)cc(N4CCS(=O)(=O)CC4)cc3F)C(=O)O)c3cccnc23)c(Cl)c1 [Example 80, (S)-3-(8-(2-chloro-4-cyanophenyl)quinolin-5-yl)-2-(4-(1,1-dioxidothiomorpholino)-2,6-difluorobenzamido)propanoic acid]	18.1
CC[C@@H](Nc1cc(Cl)c(C(=O)N[C@@H](Cc2ccc(-c3c(C(F)(F)F)cc(C)n(C)c3=O)c3ncccc23)C(=O)O)c(Cl)c1)C(F)(F)F [Example 143, (S)-2-(2,6-dichloro-4-(((R)-1,1,1-trifluorobutan-2-yl)amino)benzamido)-3-(8-(1,6-dimethyl-2-oxo-4-(trifluoromethyl)-1,2-dihydropyridin-3-yl)quinolin-5-yl)propanoic acid]	0.3
CC[C@@H](Nc1cc(F)c(C(=O)N[C@@H](Cc2ccc(-c3c(C(F)(F)F)cc(C)n(C)c3=O)c3ncccc23)C(=O)O)c(F)c1)C(F)(F)F (single isomer, unassigned) [Example 107]	0.2
N#Cc1ccc(-c2ccc(C[C@H](NC(=O)c3c(F)cccc3Cl)C(=O)O)c3cccnc23)c(Cl)c1 [Example 2, (S)-3-(8-(2-chloro-4-cyanophenyl)quinolin-5-yl)-2-(2-chloro-6-fluorobenzamido)propanoic acid]	31.1
CC[C@@H](Nc1cc(C)c(C(=O)N[C@@H](Cc2ccc(-c3c(C(F)(F)F)cc(C)n(C)c3=O)c3ncccc23)C(=O)O)c(F)c1)C(F)(F)F [Example 142, (S)-3-(8-(1,6-dimethyl-2-oxo-4-(trifluoromethyl)-1,2-dihydropyridin-3-yl)quinolin-5-yl)-2-(2-fluoro-6-methyl-4-(((R)-1,1,1-trifluorobutan-2-yl)amino)benzamido)propanoic acid]	0.2

Same assay, conditions: Table 2; capture of α4β7 expressing RPM18866 cells on MadCAM-1 extracellular domain-coated plate

SMILES	EC50 [nM]
Cc1c(N)cc(-c2ccc(C[C@H](NC(=O)c3c(F)cc(N4CCOC[C@@H]4C(F)(F)F)cc3F)C(=O)O)c3cccnc23)c(=O)n1C [Example 273]	4.7
CC[C@@H](Nc1cc(F)c(C(=O)N[C@@H](Cc2ccc(-c3cc(N(C)C)c(C)n(C)c3=O)c3ncccc23)C(=O)O)c(F)c1)C(F)(F)F [Example 268]	4.3
CC[C@@H](Nc1cc(F)c(C(=O)N[C@@H](Cc2ccc(-c3nc(C)cc(OC)c3C(F)(F)F)c3ncccc23)C(=O)O)c(F)c1)C(F)(F)F [Example 275]	4.8
N#Cc1ccc(-c2ccc(C[C@H](NC(=O)c3c(Cl)cc4cc[nH]c4c3Cl)C(=O)O)c3cccnc23)c(Cl)c1 [Example 317]	13.8
N#Cc1ccc(-c2ccc(C[C@H](NC(=O)c3c(Cl)cc4[nH]ccc4c3Cl)C(=O)O)c3cccnc23)c(Cl)c1 [Example 246]	34.3
N#Cc1cc(Cl)c(-c2ccc(C[C@H](NC(=O)c3c(F)cc(CS(=O)(=O)c4ccccc4)cc3F)C(=O)O)c3cccnc23)c(Cl)c1 [Example 293]	6.9
CC1(O)CCN(c2cc(F)c(C(=O)N[C@@H](Cc3ccc(-c4ccc(C#N)cc4Cl)c4ncccc34)C(=O)O)c(F)c2)CC1 [Example 216]	31
Cc1nc(-c2ccc(C[C@H](NC(=O)c3c(F)cc(N4CCOC[C@@H]4C(F)(F)F)cc3F)C(=O)O)c3cccnc23)ncc1F [Example 301]	9.4
O=C(N[C@@H](Cc1ccc(NC(=O)c2c(Cl)cncc2Cl)c2ncccc12)C(=O)O)c1c(F)cccc1F [Example 316]	13.7
CC[C@@H](Nc1cc(F)c(C(=O)N[C@@H](Cc2ccc(-c3c(C(F)(F)F)cc(F)c4cccnc34)c3ncccc23)C(=O)O)c(F)c1)C(F)(F)F [Example 256]	3.5
Cc1cc(C(F)(F)F)c(-c2ccc(C[C@H](NC(=O)c3c(F)cc(N4CCOC[C@H]4CC(F)F)cc3F)C(=O)O)c3cccnc23)c(=O)n1C [Example 250]	3.1
CC[C@@H](Nc1cc(F)c(C(=O)N[C@@H](Cc2ccc(-c3c(C)c(Cl)cn(C)c3=O)c3ncccc23)C(=O)O)c(F)c1)C(F)(F)F [Example 200]	1.5
Cc1cnc(-c2ccc(C[C@H](NC(=O)c3c(F)cc(N4CCOC[C@@H]4C(F)(F)F)cc3F)C(=O)O)c3cccnc23)c(C(F)(F)F)c1 [Example 260]	3.8
CCOCc1cc(OC)c(-c2ccc(C[C@H](NC(=O)c3c(F)cc(N[C@H](CC)C(F)(F)F)cc3F)C(=O)O)c3cccnc23)c(OC)c1 [Example 201]	1.5
